One assay concerns NCI-H929. Nature of the assay: Cytostatic activity on human multiple myeloma cell line NCI-H929 (WST-1). The settings on record: for inhibition at 1 µM: Homo sapiens, NCI-H929, 72 h, read-out: cytostatic rate (%) H929 (1 μmol/L). The assay is classed as cell-based. An outline of the steps: (§1)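 Cells pre-cultured 24 h at 37 °C, 5% CO2, then exposed 72 h to compound at final 1 or 10 μmol/L (0.1% DMSO). WST-1 added for 2 h, absorbance at 450 nm (ref 690 nm). Cytostatic rate = 100 minus relative growth, with DMSO control as 100% and blank as 0%.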
(In general: Formazan colour is commonly taken as a measure of viable cells.)

In another assay the test system is KMS-11. Nature of the assay: Cytostatic activity on human multiple myeloma cell line KMS-11 (WST-1). It counts as cell-based. The settings on record: for inhibition at 1 µM: Homo sapiens, KMS-11, 72 h, read-out: cytostatic rate (%) KMS-11 (1 μmol/L). The essentials: as §1
A further assay concerns the target T1, IGF-1R (Homo sapiens, UniProt P08069).
T1 construct: purchased Upstate Co. 14-465
In words: IGF-1R inhibitory activity (kinase reaction, time-resolved fluoroimmunoassay). It counts as biochemical. Conditions: IGF-1R active recombinant enzyme, test compound 10 μmol/L. The essentials: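 Compounds were tested at a single 10 μmol/L concentration. Each was incubated with recombinant IGF-1R (200 μg/L), 10 mmol/L ATP, MgCl2/MnCl2 and Na3VO4 (pH 7.5) on immobilized poly(Glu-Tyr) peptide for 30 min at 24° C. Eu-anti-phosphotyrosine time-resolved fluorescence (340/615 nm) gave relative activity against no-compound and no-enzyme wells, reported as % inhibition.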

Setting [1] is: NCI-H929 cells, test compound 1 μmol/L, WST-1.
[2] abbreviates: KMS-11 cells, test compound 1 μmol/L, WST-1.

Where two headings read alike, the source gives them in different places.

Data on 21 compounds can be found in US7605272B2, “IGF-1R inhibitor” (Kyowa Hakko Kirin Co., Ltd., priority 2005, dated 2009).

T1 sequence (P08069 959-1367 limits assumed): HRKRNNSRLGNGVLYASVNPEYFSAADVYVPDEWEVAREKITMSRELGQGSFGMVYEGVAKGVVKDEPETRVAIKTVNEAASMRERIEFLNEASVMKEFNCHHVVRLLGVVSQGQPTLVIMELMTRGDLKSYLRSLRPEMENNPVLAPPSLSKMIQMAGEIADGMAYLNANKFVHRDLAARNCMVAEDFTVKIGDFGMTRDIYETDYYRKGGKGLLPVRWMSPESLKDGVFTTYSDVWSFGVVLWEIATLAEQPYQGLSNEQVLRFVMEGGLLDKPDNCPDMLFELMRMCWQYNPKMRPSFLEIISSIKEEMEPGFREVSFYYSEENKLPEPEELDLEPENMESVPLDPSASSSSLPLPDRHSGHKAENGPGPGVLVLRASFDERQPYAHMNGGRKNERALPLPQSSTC

In the case of `CC(=O)NC1CCN(C(=O)c2ccc(/C=C/c3n[nH]c4ccccc34)c(NC(=O)c3sccc3C)c2)CC1` [Compound 301, (E)-N-{5-[4-(acetylamino)piperidin-1-ylcarbonyl]-2-[2-(1H-indazol-3-yl)vinyl]phenyl}-3-methylthiophene-2-carboxamide], the inhibition at 1 µM in the assay with NCI-H929 (1 μmol/L, 72 hours) came out at 119%; with KMS-11 (1 μmol/L, 72 hours) it was 100%. Moreover, the inhibition at 10 µM on IGF-1R came out at 98.3%.
With `Cc1ccsc1C(=O)Nc1cc(CN2CCN(C[C@H](O)CO)CC2)ccc1/C=C/c1n[nH]c2ccccc12` [Compound 302, (E)-(S)—N-{5-[4-(2,3-dihydroxypropyl)piperazin-1-ylmethyl]-2-[2-(1H-indazol-3-yl)vinyl]phenyl}-3-methylthiophene-2-carboxamide], the inhibition at 1 µM with NCI-H929 (1 μmol/L, 72 hours) turned out to be 115%; in the assay with KMS-11 (1 μmol/L, 72 hours) it was 99.4%. In addition, at IGF-1R, the inhibition at 10 µM was found to be 101%.
Taken in the same sequence, the figures for `CC(=O)N1CCC(NC(=O)c2ccc(/C=C/c3n[nH]c4ccccc34)c(NC(=O)c3sccc3C)c2)CC1` [Compound 303, (E)-N-{5-[N-(1-acetylpiperidin-4-yl)carbamoyl]-2-[2-(1H-indazol-3-yl)vinyl]phenyl}-3-methylthiophene-2-carboxamide] were 115%, 106% and 100%.
Taken in the same sequence, the figures for `COCCCN1CCN(Cc2ccc(/C=C/c3n[nH]c4ccccc34)c(NC(=O)c3sccc3C)c2)CC1` [Compound 304, (E)-N-{2-[2-(1H-indazol-3-yl)vinyl]-5-[4-(3-methoxypropyl)piperazin-1-ylmethyl]phenyl}-3-methylthiophene-2-carboxamide] were 115%, 105% and 102%.
Take `CN(CCO)c1ccc(/C=C/c2n[nH]c3ccccc23)c(NC(=O)c2cccn2C)c1` [Compound 305, (E)-N-{5-[N-(2-hydroxyethyl)methylamino]-2-[2-(1H-indazol-3-yl)vinyl]phenyl}-1-methyl-1H-pyrrole-2-carboxamide]: the inhibition at 1 µM in the assay with NCI-H929 (setting [1]) is 118%; with KMS-11 (setting [2]) it was 110%. In addition, the inhibition at 10 µM on IGF-1R stood at 100%.
For `Nc1cccc2c1C(=O)N(c1cc(CN3CCN(CCCO)CC3)ccc1/C=C/c1n[nH]c3ccccc13)C2=O` [Compound 306, (E)-4-amino-2-{5-[4-(3-hydroxypropyl)piperazin-1-ylmethyl]-2-[2-(1H-indazol-3-yl)vinyl]phenyl}isoindole-1,3-dione], in that order: 116%, 112% and 100%.
Taken in the same sequence, the figures for `Nc1cccc2c1C(=O)N(c1cc(CN3CCN(CCO)CC3)ccc1/C=C/c1n[nH]c3ccccc13)C2=O` [Compound 307, (E)-4-amino-2-{5-[4-(2-hydroxyethyl)piperazin-1-ylmethyl]-2-[2-(1H-indazol-3-yl)vinyl]phenyl}isoindole-1,3-dione] were 114%, 110% and 100%.
Turning to `Cn1cccc1C(=O)Nc1cc(N(CCO)CCN2CCOCC2)ccc1/C=C/c1n[nH]c2ccccc12` [Compound 308, (E)-{5-[N-(2-hydroxyethyl)-2-(morpholin-4-yl)ethylamino]-2-[2-(1H-indazol-3-yl)vinyl]phenyl}-1-methyl-1H-pyrrole-2-carboxamide], the “cytostatic rate (%) H929 (1 μmol/L)” value in the assay on NCI-H929 (setting [1]) is on record as 118.3%. In the assay with KMS-11 (setting [2]), the “cytostatic rate (%) KMS-11 (1 μmol/L)” value is listed as 128.1%. Further, the “inhibitory activity (%) at 10 μmol/L” value at IGF-1R is 99.1%.
Regarding `COCCCN1CCN(C(=O)c2ccc(/C=C/c3n[nH]c4ccccc34)c(N3C(=O)c4cccc(N)c4C3=O)c2)CC1` [Compound 309, (E)-4-amino-2-{2-[2-(1H-indazol-3-yl)vinyl]-5-[4-(3-methoxypropyl)piperazin-1-ylcarbonyl]phenyl}isoindole-1,3-dione], the inhibition at 1 µM in the assay with NCI-H929 (setting [1]) came out at 115%; in the assay with KMS-11 (setting [2]), 113%. Moreover, at IGF-1R, the inhibition at 10 µM is 97.1%.
Taken in the same sequence, the figures for `Cc1ccsc1C(=O)Nc1cc(CN2CCC(CCO)CC2)ccc1/C=C/c1n[nH]c2ccccc12` [Compound 311, (E)-N-{5-[4-(2-hydroxyethyl)piperidin-1-ylmethyl]-2-[2-(1H-indazol-3-yl)vinyl]phenyl}-3-methylthiophene-2-carboxamide] were 117%, 111% and 104%.
`CC(=O)CCN1CCN(Cc2ccc(/C=C/c3n[nH]c4ccccc34)c(NC(=O)c3sccc3C)c2)CC1` [Compound 313, (E)-{2-[2-(1H-indazol-3-yl)vinyl]-5-[4-(3-oxobutyl)piperazin-1-ylmethyl]phenyl}-3-methylthiophene-2-carboxamide]: the “cytostatic rate (%) H929 (1 μmol/L)” value with NCI-H929 (setting [1]) is 115.2%. In addition, the “cytostatic rate (%) KMS-11 (1 μmol/L)” value in the assay on KMS-11 (setting [2]) was 107.9%. Besides, the “inhibitory activity (%) at 10 μmol/L” value at IGF-1R was found to be 100.7%.
As to `CN1CCN(C(=O)c2ccc(/C=C/c3n[nH]c4ccccc34)c(N3C(=O)c4cccc(N)c4C3=O)c2)CC1` [Compound 315, (E)-4-amino-2-{2-[2-(1H-indazol-3-yl)vinyl]-5-(4-methylpiperazin-1-ylcarbonyl)phenyl}isoindole-1,3-dione], the inhibition at 1 µM was determined as 113% in the assay on NCI-H929 (setting [1]) and 106% in the assay on KMS-11 (setting [2]). Moreover, at IGF-1R, the inhibition at 10 µM was determined as 106%.
`Nc1cccc2c1C(=O)N(c1cc(C(=O)N3CCC(N4CCOCC4)CC3)ccc1/C=C/c1n[nH]c3ccccc13)C2=O` [Compound 317, (E)-4-amino-2-{2-[2-(1H-indazol-3-yl)vinyl]-5-[4-(morpholin-4-yl)piperidin-1-ylcarbonyl]phenyl}isoindole-1,3-dione]: the results for the inhibition at 1 µM with NCI-H929 (setting [1]) and in the assay with KMS-11 (setting [2]) were 114% and 105%, respectively. On IGF-1R, the inhibition at 10 µM was 103%.
As for `Cc1ccsc1C(=O)Nc1cc(CN2CCN(CCN3CCOCC3)CC2)ccc1/C=C/c1n[nH]c2ccccc12` [Compound 319], the “cytostatic rate (%) H929 (1 μmol/L)” value with NCI-H929 (setting [1]) worked out at 122.4%. Also, the “cytostatic rate (%) KMS-11 (1 μmol/L)” value with KMS-11 (setting [2]) was found to be 102.6%. At IGF-1R, the “inhibitory activity (%) at 10 μmol/L” value was found to be 100.4%.
Taken in the same sequence, the figures for `CON(C)C(=O)c1ccc(/C=C/c2n[nH]c3ccccc23)c(NC(=O)c2sccc2C)c1` [Compound 320, (E)-{2-[2-(1H-indazol-3-yl)vinyl]-5-(N-methoxy N-methylcarbamoyl)phenyl}-3-methyl-2-carboxamide] were 122.8%, 112.1% and 102.1%.
In the case of `COCCCN1CCN(Cc2ccc(/C=C/c3n[nH]c4ccccc34)c(N3Cc4c(N)cccc4C3=O)c2)CC1` [Compound 321, (E)-4-amino-2-{5-[4-(3-methoxypropyl)piperazin-1-ylmethyl]-2-[2-(1H-indazol-3-yl)vinyl]phenyl}-2,3-dihydroisoindole-1-one], the inhibition at 1 µM with NCI-H929 (setting [1]) turned out to be 122%. The “cytostatic rate (%) KMS-11 (1 μmol/L)” value with KMS-11 (setting [2]) is reported as 102.3%. Besides, on IGF-1R, the inhibition at 10 µM was determined as 101%.
For the compound `Cc1ccsc1C(=O)Nc1cc(CN2CCC(CCC(C)(C)O)CC2)ccc1/C=C/c1n[nH]c2ccccc12` [Compound 322, (E)-N-{5-[4-(3-hydroxy-3-methylbutyl)piperidin-1-ylmethyl]-2-[2-(1H-indazol-3-yl)vinyl]phenyl}-3-methylthiophene-2-carboxamide], the figures for the inhibition at 1 µM with NCI-H929 (setting [1]) and in the assay on KMS-11 (setting [2]) were 122% and 106%, respectively. At IGF-1R, the inhibition at 10 µM was determined as 99.1%.
With `COCCCN1CCN(Cc2ccc(/C=C/c3n[nH]c4ccccc34)c(N3Cc4c(N)cccc4C3=O)c2)CC1` [Compound 323, (E)-4-amino-2-{2-[2-(1H-indazol-3-yl)vinyl]-5-[4-(3-methoxypropyl)piperazin-1-ylmethyl]phenyl}-2,3-dihydroisoindol-1-one], the “cytostatic rate (%) H929 (1 μmol/L)” value in the assay on NCI-H929 (setting [1]) is given as 107.6%. In the assay on KMS-11 (setting [2]), the “cytostatic rate (%) KMS-11 (1 μmol/L)” value is 73.8%. On IGF-1R, the “inhibitory activity (%) at 10 μmol/L” value amounted to 105.8%.
For `COC1CCN(C(=O)c2ccc(/C=C/c3n[nH]c4ccccc34)c(N3C(=O)c4cccc(N)c4C3=O)c2)CC1` [Compound 325], in that order: 118.4%, 100.1% and 100.2%.
Turning to `CN(C)C(=O)c1ccc(/C=C/c2n[nH]c3ccccc23)c(N2C(=O)c3cccc(N)c3C2=O)c1` [Compound 326, (E)-3-(4-amino-1,3-dioxo-1,3-dihydroisoindol-2-yl)-4-[2-(1H-indazol-3-yl)vinyl]-N,N-dimethylbenzamide], the inhibition at 1 µM with NCI-H929 (setting [1]) was 118%; with KMS-11 (setting [2]), 102%. The inhibition at 10 µM on IGF-1R is 103%.
For `Cc1ccsc1C(=O)Nc1cc(C(=O)N(C)CCO)ccc1/C=C/c1n[nH]c2ccccc12` [Compound 327, (E)-N-{5-[N-(2-hydroxyethyl)-N-methylcarbamoyl]-2-[2-(1H-indazol-3-yl)vinyl]phenyl}-3-methylthiophene-2-carboxamide], in that order: 116%, 98% and 101%.
